In data set [1] the test system is human acute myelogenous leukemia cell line HL-60. Briefly: Ability to induce differentiation of HL-60 cells (oxygen radical production after phorbol ester, WST-1). Particulars: 72 hours incubation, then WST-1 and phorbol 12,13-didecanoate for 4 hours, absorbance at 450 nm. The data set is classed as cell-based. The source says:
It is known that the human acute myelogenous leukemia cell line HL-60is differentiated into neutrophil-like cells by active vitamin D or the like. Thus, the cells after the differentiation begin to express a surface marker such as CD11and CD32and, at the same time, they produce an oxygen radical by stimulation with a phorbol ester or the like. In this test, the above-mentioned property was utilized. As an index of the ability to induce differentiation of the HL-60cells, the amount of the oxygen radical produced by stimulation with a phorbol ester was measured, and the compounds of the invention mentioned in Examples were compared with maxacalcitol with respect to the vitamin D3activity thereof. In use of commercial reagents and kits, if any, the indications attached thereto were referred to.
HL-60cells (supplied from ATCC) were seeded on a 96-well plate at 5×10^3cells/100μL/well and a test compound in two-fold dilution series from 10^−7M was added to the second to the twelfth rows (maximum concentration: the second row). The first row was used for blank. After incubation for 72 hours under a moisturized condition in the presence of 5% CO2 at 37° C. using a CO2 incubator, 10 μL of PBS containing 50 mM WST-1 (manufactured by Takara Bio) and 10 μM phorbol 12,13-didecanoate (manufactured by SIGMA) were added to each well followed by further incubation for 4 hours. Absorbance (reference wavelength: […]) at […] of the WST-1 formazane dye generated by conversion from WST-1 by oxygen radical produced from the differentiated HL-60 cells was measured by a Benchmark microplate reader (manufactured by BioRad). An absorbance meter control software MPM3 (manufactured by BioRad) was used and, from a concentration-absorbance curve, the 50%-maximal effective concentration (hereinafter, referred to as “EC50”) of each was determined by a logistic curve regression.

A short description of data set [2]: Action to increase calcium concentration in serum, percutaneous administration. It counts as in vivo, SD male rats. Conditions: percutaneous 33 μg/200 μL/kg/day once a day for 7 days, blood 24 hours after final administration. How it is done: The compound of the invention mentioned in Example 1 or maxacalcitol in ethanol containing 0.3% DMSO was repeatedly subjected to percutaneous administration (33 μg/200 μL/kg/day) once a day for 7 days onto the back of SD male rats (7 weeks of age). Ethanol containing 0.3% DMSO was administered to a control group. At 24 hours after the final administration, blood was collected and the calcium concentration in serum was measured.

Data set [3] in a line: Action to increase the urinary excretion of calcium (1), percutaneous administration. It counts as in vivo, SD male rats. Conditions: percutaneous 10 μg/200 μL/kg/day once a day for 4 days; for Calcium in Urine within 24 hours: accumulated excretion 0 to 24 hours; for Calcium in Urine within 48 hours: accumulated excretion 0 to 48 hours; for Calcium in Urine within 72 hours: accumulated excretion 0 to 72 hours; for Calcium in Urine within 96 hours: accumulated excretion 0 to 96 hours. How it is done: The compound of the invention mentioned in Example 1, 36, 43, 47, 48, 55 or 70 or maxacalcitol in ethanol containing 0.5% DMSO was repeatedly subjected to a percutaneous administration (10 μg/200 μL/kg/day) once a day for 4 days onto the back of SD male rats (7 weeks of age). Ethanol containing 0.5% DMSO was administered to a control group. The calcium concentration in urine collected every 24 hours was measured and multiplied by the amount of urine to calculate the urinary excretion of calcium. The calcium excretion in urine shown in Table 3 indicates the accumulated calcium excretion from 0 to 24 hours, from 0 to 48 hours, from 0 to 72 hours, and from 0 to 96 hours.

Data set [4] is described as follows: Metabolic rate in human liver microsome. The data set is classed as in vitro ADME. Conditions: pooled human liver microsome 1 mg/mL protein, NADPH-regenerating system, 37° C., 2-60 minutes, HPLC. The method, then:
The compounds of the invention mentioned in Examples and maxacalcitol were compared with each other with respect to the metabolic rate in human liver microsome.
As to the pooled human liver microsome (HHM-0323), those manufactured by Tissue Transformation Technologies were used. A 0.25 M potassium phosphate buffer (pH 7.4) (200 μL), 5 μL of a 250 μM solution of each compound to be tested in DMSO, 50 μL of an NADPH-regenerating system (where 20 mg of β-NADP^+, 70 mg of glucose-6-phosphate, 40 units of glucose-6-phosphate dehydrogenase and 20 mg of magnesium chloride were dissolved in 1 mL of distilled water) and 220 μL of distilled water were added to a microtube and the mixture was subjected to a preincubation for 5 minutes at 37° C. Reaction was started by an addition of 25 μL of human liver microsome (final concentration of protein: 1 mg/mL). Incubation was performed for 2, 10, 30 or 60 minutes and the reaction was stopped by an addition of 500 μL of acetonitrile. After centrifugation at 13,000 rpm for 5 minutes, each test compound in the supernatant (25 μL) was measured by HPLC under the following conditions.
Inertsil ODS-3 (4.6×150 mm; GL Science) was used as a column. With regard to the mobile phase, a solution A (acetonitrile/0.1% aqueous solution of ammonium acetate=10/90) and a solution B (acetonitrile/0.1% aqueous solution of ammonium acetate=90/10) were used under the linear gradient conditions mentioned in Tables 5 to 7. The column temperature, the flow rate and the wavelength for detection were set at 40° C., 1.0 mL/min. and UV 250 or 270 nm, respectively.
The compound mentioned in Example 38 was analyzed under the condition shown in Table 6; the compounds mentioned in Examples 55, 56, 68, 69, 72 and 73 were under the condition shown in Table 7; and the other compounds were under the condition shown in Table 5.
The compounds described in Examples 40, 43 to 48, 50, 55, 56, 58, 60, 61, 63 and 65 to 73 were analyzed under the condition of UV 250 nm; and the other compounds were under the condition of UV 270 nm.
From the HPLC test results as above, the metabolic rate of the test compound was calculated.
Background: Liver microsomes are vesicles of endoplasmic reticulum, rich in cytochrome P450 enzymes.

Data set [5] in a line: Action to increase the urinary excretion of calcium (2), intravenous administration. The data set is classed as in vivo, SD male rats. Particulars: intravenous 22.4 nmol/kg; for Calcium in Urine: urine collected within 24 hours after administration; for Ratio of Calcium in Urine (to control): urine within 24 hours, test compound/control group. How it is done: The compound of the invention mentioned in Example 42, 61 or 66, or maxacalcitol in saline containing 0.1% Triton X 100/5.6% DMSO (22.4 nmol/kg) was subjected to an intravenous administration to SD male rats (7 weeks of age) Saline containing 0.1% Triton X 100/5.6% DMSO was administered to a control group. The calcium concentration in urine collected within 24 hours after the administration was measured and the urinary excretion of calcium ([calcium concentration in urine]×[amount of urine]) and the ratio of urinary excretion of calcium based on the control group ([calcium amount in urine in administration of the test compound]/[calcium amount in urine in the control group]) were calculated.

The term EC50 denotes the concentration needed to bring the measured effect to its halfway point. A lower EC50 goes with higher potency in that assay.

Take `C=C1/C(=C\C=C2/CCC[C@]3(C)[C@@H]([C@H](C)OC(=O)CCC(C)(C)O)CC[C@@H]23)C[C@@H](O)C[C@@H]1O` [Compound of Example 1, (1S,3R,20S)-20-(4-hydroxy-4-methylpentanoyloxy)-9,10-secopregna-5Z,7E,10(19)-triene-1,3-diol]: in data set [1], a half-maximal response (EC50) required 1500 pM. The “Serum Calcium Concentration” value in data set [2] is on record as 11.8 mg/dL. For the same molecule, in data set [3], the “Calcium in Urine within 24 hours” value was determined as 0.8 mg, the “Calcium in Urine within 48 hours” value was 1.4 mg, the “Calcium in Urine within 72 hours” value is on record as 2.3 mg and the “Calcium in Urine within 96 hours” value was determined as 3.8 mg. Further, the “Metabolic Rate” value in data set [4] is given as 78 pmol/min/mg.
In turn, `CCC(O)(/C=C/C(=O)O[C@@H](C)[C@H]1CC[C@H]2/C(=C/C=C3C[C@@H](O)C[C@H](O)C3)CCC[C@]12C)CC` [Compound of Example 42, (1R,3R,20S)-19-nor-20-[(2E)-4-ethyl-4-hydroxyhex-2-enoyloxy]-9,10-secopregna-5Z,7E-diene-1,3-diol] gave an EC50 in data set [1] of 1300 pM. In data set [5], the “Calcium in Urine” value is listed as 0.8 mg and the “Ratio of Calcium in Urine (to control)” value amounted to 160%. The “Metabolic Rate” value in data set [4] was found to be 34 pmol/min/mg.
The molecule `CC(OC(=O)CCC(C)(O)C(F)(F)F)C1CCC2C(=CC=C3CC(O)CC(O)C3)CCCC21C` [Compound of Example 43, (1R,3R,20S)-19-nor-20-(5,5,5-trifluoro-4-hydroxy-4-methylpentanoyloxy)-9,10-secopregna-5Z,7E-diene-1,3-diol] came in with a concentration for a half-maximal effect (EC50) in data set [1] of 450 pM. Further, in data set [3], the “Calcium in Urine within 24 hours” value turned out to be 1.2 mg, the “Calcium in Urine within 48 hours” value is reported as 1.9 mg, the “Calcium in Urine within 72 hours” value is listed as 3.3 mg and the “Calcium in Urine within 96 hours” value is on record as 4.6 mg. In data set [4], the “Metabolic Rate” value is 74 pmol/min/mg.
`CC(OC(=O)CCC(C)(O)C(F)(F)F)C1=CCC2C(=CC=C3CC(O)CC(O)C3)CCCC12C` [Compound of Example 47, (1R,3R,20S)-19-nor-20-(5,5,5-trifluoro-4-hydroxy-4-methylpentanoyloxy)-9,10-secopregna-5Z,7E,16-triene-1,3-diol] registered an EC50 in data set [1] of 630 pM. Further, in data set [3], the “Calcium in Urine within 24 hours” value is given as 1.2 mg, the “Calcium in Urine within 48 hours” value is given as 1.8 mg, the “Calcium in Urine within 72 hours” value is 2.7 mg and the “Calcium in Urine within 96 hours” value was determined as 3.7 mg. In addition, the “Metabolic Rate” value in data set [4] is 95 pmol/min/mg.
In data set [1], `C=C1[C@H](O)CC(=C/C=C2\CCC[C@]3(C)C([C@H](C)OC(=O)CCC(C)(C)O)=CC[C@@H]23)C[C@H]1O` [Compound of Example 48, (1R,3R,20S)-19-nor-2-methylene-20-(4-hydroxy-4-methylpentanoyloxy)-9,10-secopregna-5Z,7E,16-triene-1,3-diol] returned an EC50 of 210 pM. In data set [3], the “Calcium in Urine within 24 hours” value was 1.1 mg, the “Calcium in Urine within 48 hours” value was found to be 1.9 mg, the “Calcium in Urine within 72 hours” value came to 3.5 mg and the “Calcium in Urine within 96 hours” value is on record as 5.2 mg. The “Metabolic Rate” value in data set [4] came to 69 pmol/min/mg.
As for `C=C1[C@H](O)CC(=C/C=C2\CCC[C@]3(C)C([C@H](C)OC(=O)CC[C@](C)(O)C(F)(F)F)=CC[C@@H]23)C[C@H]1O` [Compound of Example 55, (1R,3R,20S)-19-nor-2-methylene-20-[(4S)-5,5,5-trifluoro-4-hydroxy-4-methylpentanoyloxy]-9,10-secopregna-5Z,7E,16-triene-1,3-diol], the EC50 in data set [1] stood at 150 pM. In addition, in data set [3], the “Calcium in Urine within 24 hours” value came to 1.1 mg, the “Calcium in Urine within 48 hours” value turned out to be 2.0 mg, the “Calcium in Urine within 72 hours” value was 3.4 mg and the “Calcium in Urine within 96 hours” value was 4.8 mg. Further, the “Metabolic Rate” value in data set [4] came out at 128 pmol/min/mg.
As for `CC1[C@H](O)CC(=C/C=C2\CCC[C@]3(C)[C@@H]([C@H](C)OC(=O)CCC(C)(O)C(F)(F)F)CC[C@@H]23)C[C@H]1O` (stereo partly drawn) [Compound of Example 61, (1R,2β,3R,20S)-2-methyl-19-nor-20-(5,5,5-trifluoro-4-hydroxy-4-methylpentanoyloxy)-9,10-secopregna-5Z,7E-diene-1,3-diol], the EC50 in data set [1] is 1200 pM. Further, in data set [5], the “Calcium in Urine” value was 0.6 mg and the “Ratio of Calcium in Urine (to control)” value stood at 120%. The “Metabolic Rate” value in data set [4] worked out at 188 pmol/min/mg.
Turning to `CCC(O)(CC)CCC(=O)O[C@@H](C)[C@H]1CC[C@H]2/C(=C/C=C3C[C@@H](O)C(C)[C@H](O)C3)CCC[C@]12C` (stereo partly drawn) [Compound of Example 66, (1R,2β,3R,20S) -2-methyl-19-nor-20-[4-ethyl-4-hydroxyhexanoyloxy]-9,10-secopregna-5Z,7E-diene-1,3-diol], in data set [5], the “Calcium in Urine” value was 0.5 mg and the “Ratio of Calcium in Urine (to control)” value worked out at 100%. In data set [4], the “Metabolic Rate” value was found to be 116 pmol/min/mg.
Take “(1S,3R,20S)-20-[(4S) or (4R)-5,5,5-trifluoro-4-hydroxy-4-methylpentanoyloxy]-9,10-secopregna-5Z,7E,10(19)-triene-1,3-diol [Compound of Example 36]”: in data set [1], the EC50 is 410 pM. For the same molecule, in data set [3], the “Calcium in Urine within 24 hours” value worked out at 1.0 mg, the “Calcium in Urine within 48 hours” value stood at 1.7 mg, the “Calcium in Urine within 72 hours” value turned out to be 2.8 mg and the “Calcium in Urine within 96 hours” value is reported as 4.5 mg. For the same molecule, the “Metabolic Rate” value in data set [4] stood at 82 pmol/min/mg.

Values taken from patent US8796246B2, “9, 10-secopregnane derivative and pharmaceutical” (Nippon Shinyaku Co., Ltd., priority 2006, dated 2014).
